# Measurements taken from article PMC8652888, “Angiogenesis, Anti-Tumor, and Anti-Metastatic Activity of Novel α-Substituted Hetero-Aromatic Chalcone Hybrids as Inhibitors of Microtubule Polymerization” (Frontiers in Chemistry, 2021).
# “And” between values parts separate entries of the source, which are not always exact repeats. Identical values can stand only once. Like-named read-outs stand apart in the source and are kept apart here.
# How the values were obtained:
# [1] = tested on: microtubule network in MCF-7 cells; assay: Immunofluorescent staining of microtubule network; format: cell-based, human; conditions: 0.4 μM, 24 h
# Description: Microtubule dynamics play an essential role in cancer cell growth. To examine whether compound 7m is able to disrupt microtubule dynamics, an immunofluorescent assay was carried out in MCF-7 cells.
# Then the cells were washed with PBS three times. After permeabilization with 0.25% Triton X-100 for 5 min, the cells were washed with PBS three times and blocked in 5% bovine serum albumin (BSA) for 40 min. The cells were incubated with rabbit anti-α-tubulin primary antibody containing 5% BSA at room temperature for 5–6 h and washed with PBS three times. Cells were finally visualized under a fluorescence microscope.
# HUVECs = assay: Tube formation assay; format: cell-based, human; conditions: 1, 5, 25 μM, 6–8 h
# Description: HUVECs (human umbilical vein endothelial cells) grown on Matrigel were commonly used as a tube formation model and also a widely studied human endothelial cell type in angiogenesis, for their ability to alter their shape to resemble capillaries ([Aranda and Owen, 2009]). […] We therefore examined the effects of 7m on HUVEC tube formation to evaluate its potential effect on angiogenesis.
# The HUVECs were seeded in 96-well plates and cultured for 24 h, and then incubated with 1, 5, and 25 μM 7m. The EC Matrigel matrix was thawed overnight at 4°C. The HUVECs, suspended in F12K, were seeded in a 96-well culture plate at a cell density of 10,000 cells/well after 45 min of Matrigel polymerization at 37°C. Then they were treated with different concentrations of 7m or carrier at 37°C for 6–8 h. Then the morphological changes of the formed cells and tubes under an inverted microscope were observed, and pictures were taken.
# MCF-7 cells [2] = assay: Cell cycle analysis, flow cytometry with PI staining; format: cell-based, human; conditions: for G2/M cells: 24 h; for G0/G1, single runs / G0/G1 AVERAGE / G2/M, single runs / S AVERAGE / S, single runs / G2/M AVERAGE: flowjo raw data
# Description: It is known that tubulin inhibitors block the cell cycle in the G2/M phase because of microtubule depolymerization and cytoskeleton disruption. Therefore, the effects of 7m on cell cycle progression of MCF-7 cells were analyzed by flow cytometry with PI staining. MCF-7 cells were treated with different concentrations (0, 100, 200, and 400 nM) of compound 7m for 24 h and 200 nM 7m at different times (0, 6, 12, and 24 h), respectively. […] When the concentration was increased to 200 and 400 nM, cells of 47% and 56% G2/M phase arrest were observed, respectively. Similarly, this phenomenon occurred after treatment with 200 nM 7m from 0 to 24 h.
# MCF-7 cells were seeded into six-well plates (5 × 10^5 cells/well) and incubated at 37°C in a humidified 5% CO2 incubator for 24 h, and then treated with or without compound 7m at indicated concentrations (100, 200, 400 nM). The collected cells were fixed by adding 70% of ethanol at −20°C for 12 h. The cells were then washed with PBS, incubated with […] of RNase at 37°C for 30 min, and stained with […] of propidium iodide for 15 min, and finally subjected to flow cytometry.
# [3] = tested on: MCF-7 cells implanted in zebrafish embryos; assay: Zebrafish xenograft assay; format: in vivo; conditions: 2.5, 5, 7.5 μΜ, 72 h
# Description: To examine the in vivo anti-tumor and anti-metastasis potency of 7m, we implanted Cell-Tracker Red CMTPX-labeled MCF-7 cells into the yolk of Tg (flk: EGFP) 48 hpf embryos, and different concentrations of 7m (2.5, 5, 7.5 μΜ) were added. The intensity of the red fluorescence is proportional to the size of the xenograft tumor. After 72 h, the effects of 7m on the tumor mass development and cancer cell metastasis were assessed by fluorescence microscopy. […] Without drug treatment, MCF-7 cells disseminated and migrated widely away from the original area, and some tumor cells even migrated into the blood vessels of the zebrafish tail at 72 hpf.
# The tumor cells MCF-7 were labeled with Red CMTPX, and then the labeled tumor cells were digested and resuspended. A hundred labeled tumor cells per 1 nl were injected into the zebrafish embryos developed for 48 h. The zebrafish injected with tumor cells were incubated in an incubator at 28.5°C for about 1 h under the action of different concentrations of 7m and then were transferred to an incubator at 35°C.
# MCF-7 cells [4] = assay: Wound healing assay; format: cell-based, human; conditions: 48 h
# Description: In order to evaluate whether 7m could suppress migration and invasion, the MCF-7 cell culture was performed by wound healing and Transwell Matrigel assay, respectively.
# MCF-7 cells and HUVECs cells were grown in 24-well plates at a density of 1 × 10^6 cells per well for 24 h. Scratches were made in confluent monolayers by […] pipette tips. The media containing different concentrations of 7m were added to the Petri dishes. […] The migration distance of cells migrated to the wound area was measured manually.
# [5] = tested on: taxol-resistant MCF7 cells (MCF7/Tax); assay: Growth inhibition of taxol-resistant cells; format: cell-based, human
# tubulin = assay: Tubulin polymerization in vitro (fluorescence); format: biochemical; conditions: 37°C; read-out: IC50, inhibition of tubulin polymerization
# Description: Data are presented as the mean ± SD from three independent experiments. **p < 0.01 vs. the vehicle control.
# An in vitro assay was performed to monitor the time-dependent polymerization of tubulin into microtubules. The 96-well cell culture plate was incubated at 37°C for 10 min, and test compounds and reference compounds were prepared with a 10× analyte stock solution. Five microliters of 10× analyte stock solution was added to a 96-well plate, and the microplate reader was heated at 37°C for 1 min. Immediately 85 μl of Tubulin Stock was drawn and mixed with the above mixture to prepare the tubulin reaction solution, and 50 μl of the tubulin reaction solution was to each well. The multifunctional microplate reader measured the absorbance, and the measured fluorescence value represents the level of tubulin in the polymerized state in the reaction solution.
# normal liver LO2 cells = assay: Growth inhibition of normal cells; format: cell-based, human
substance,measurement,setting,value
"3-(benzofuran-6-yl)-2-methyl-1-(3,4,5-trimethoxyphenyl)prop-2-en-1-one [Compound 7m]",effect on microtubule organization,[1],significant disruption of microtubule organization
same,width and length of tubule-like network formation,HUVECs,reduced in a concentration-dependent manner
same,G2/M cells,MCF-7 cells [2]; 100 nM,26%
same,"G0/G1, single runs",MCF-7 cells [2]; 100nM,61.76 and 47.12
same,G0/G1 AVERAGE,MCF-7 cells [2]; 100nM,54.44
same,"G2/M, single runs",MCF-7 cells [2]; 100nM,15.14 and 28.34
same,S AVERAGE,MCF-7 cells [2]; 100nM,23.82
same,"S, single runs",MCF-7 cells [2]; 100nM,23.1 and 24.54
same,"G0/G1, single runs",MCF-7 cells [2]; 200nM dose series,40.1 and 25.72
same,G0/G1 AVERAGE,MCF-7 cells [2]; 200nM dose series,32.91
same,"G2/M, single runs",MCF-7 cells [2]; 200nM dose series,40.78 and 56.03
same,S AVERAGE,MCF-7 cells [2]; 200nM dose series,18.685
same,"S, single runs",MCF-7 cells [2]; 200nM dose series,19.12 and 18.25
same,"G0/G1, single runs","MCF-7 cells [2]; 200nM, 6h",55.81 and 61.73
same,G0/G1 AVERAGE,"MCF-7 cells [2]; 200nM, 6h",58.77
same,G2/M AVERAGE,"MCF-7 cells [2]; 200nM, 6h",29.28
same,"G2/M, single runs","MCF-7 cells [2]; 200nM, 6h",36.18 and 22.38
same,S AVERAGE,"MCF-7 cells [2]; 200nM, 6h",15.51
same,"G0/G1, single runs","MCF-7 cells [2]; 200nM, 12h",34.65 and 32.01
same,G0/G1 AVERAGE,"MCF-7 cells [2]; 200nM, 12h",33.33
same,G2/M AVERAGE,"MCF-7 cells [2]; 200nM, 12h",41.805
same,"G2/M, single runs","MCF-7 cells [2]; 200nM, 12h",44.73 and 38.88
same,S AVERAGE,"MCF-7 cells [2]; 200nM, 12h",25.405
same,"S, single runs","MCF-7 cells [2]; 200nM, 12h",23.93 and 26.88
same,G2/M cells,"MCF-7 cells [2]; 200 nM, dose series (Fig 6A)",47%
same,"G0/G1, single runs","MCF-7 cells [2]; 200nM, 24h",6.61 and 3.51
same,G0/G1 AVERAGE,"MCF-7 cells [2]; 200nM, 24h",5.06
same,G2/M AVERAGE,"MCF-7 cells [2]; 200nM, 24h",91.725
same,"G2/M, single runs","MCF-7 cells [2]; 200nM, 24h",93.1 and 90.35
same,S AVERAGE,"MCF-7 cells [2]; 200nM, 24h",5.79
same,"G0/G1, single runs",MCF-7 cells [2]; 400nM,16.1 and 15.39
same,G0/G1 AVERAGE,MCF-7 cells [2]; 400nM,15.745
same,G2/M AVERAGE,MCF-7 cells [2]; 400nM,67.3
same,"G2/M, single runs",MCF-7 cells [2]; 400nM,66.98 and 67.62
same,S AVERAGE,MCF-7 cells [2]; 400nM,16.955
same,"S, single runs",MCF-7 cells [2]; 400nM,16.92 and 16.99
same,fluorescence intensity and tumor size of MCF-7 cells vs vehicle,[3],reduced the fluorescence intensity and tumor size
same,migration number of implanted MCF-7 cells,[3],notably reduced in a dose-dependent manner
same,wound healing of MCF-7 cells (migration),MCF-7 cells [4],significantly inhibited the wound healing
same,Resistant fold,[5]; (IC50 MCF7/Tax)/(IC50 MCF7),1.2
same,IC50,"[5]; three single determinations, read-out: MCF-7/Taxol (raw data of table 3, IC50)",242 nM and 181 nM and 216 nM
same,IC50,"[5]; triplicate, read-out: IC50 ± SD, MCF7/Tax",213 ± 26 nM
same,IC50,tubulin,12200 nM
same,Selectivity ratio,normal liver LO2 cells; (IC50 human normal cells LO2)/(IC50 MCF7),4.9
same,IC50,"normal liver LO2 cells; three single determinations, read-out: L02 (raw data of table 3, IC50)",885 nM and 871 nM and 914 nM
same,IC50,"normal liver LO2 cells; triplicate, read-out: IC50 ± SD, LO2",890 ± 14 nM
